Data on 25 compounds can be found in ChEMBL document CHEMBL1128584, “Prediction of drug binding affinities by comparative binding energy analysis” (J Med Chem, 1995).

The structures appear in SMILES notation.

The target of this test is T1, Phospholipase A2, membrane associated (Homo sapiens) (UniProt P14555).
T1 sequence (whole entry): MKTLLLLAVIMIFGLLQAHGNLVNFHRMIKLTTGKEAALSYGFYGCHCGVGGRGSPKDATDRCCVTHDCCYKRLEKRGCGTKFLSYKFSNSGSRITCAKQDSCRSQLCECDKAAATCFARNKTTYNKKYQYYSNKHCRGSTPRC
The experiment in a line: Inhibitory activity against human synovial fluid phospholipase A2 (HSF-PLA2). The note with it: concentration not given here. On the set-up: concentration or dose not given beside the values.
For `CCCCCCCCCCS(=O)(=O)N[C@H](CCCCCC)COP(=O)(O)OCCOCc1ccccc1` (stereo in doubt; form 3), the inhibition worked out at 74%.

`CCCCCCCCCCS(=O)(=O)NC(CCCCCC)COP(=O)(O)OCCO` (stereo in doubt; form 2) returned an inhibition of 44%. For `CCCCCCCCCCS(=O)(=O)NC(CCCCCC)COCC(F)(F)F` (stereo not given) the value was 0%; for `CCCCCCCCCCS(=O)(=O)NC(CCCCCC)COP(=O)(O)OCCN` (stereo not given), 4%. In the case of `CCCCCCCCCCCC(=O)NC(CCCCCC)COP(=O)(O)OCCOCc1ccccc1` (stereo not given) it was 6%; in that of `CCCCCCCCCCC(=O)NC(CCCCCC)COP(=O)(O)OCCN` (stereo not given), 28%. In the case of `CCCCCCCCCCS(=O)(=O)CC(CCCCCC)COP(=O)(O)OCCOCc1ccccc1` (stereo in doubt; form 1) it was 29%. In turn, `CCCCCCCCCCCC(=O)NC(CCCCCC)COP(=O)(O)OCCCC` (stereo not given) came in with an inhibition of 80%. In the case of `CCCCCCCCOCC(COP(=O)(O)OCC[N+](C)(C)C)OP(=O)(O)CCCCCCC` (stereo not given) it was 9%. Turning to `CCCCCCCCCCS(=O)(=O)NC(CCCCCC)COP(=O)(O)OCCOCc1ccccc1` (stereo in doubt; form 1), the inhibition was found to be 12%. In the case of `CCCCCCCCCCS(=O)(=O)NC(CCc1ccccc1)COP(=O)(O)OCCOCc1ccccc1` (stereo not given) it was 24%. For `CCCCCCCCCCS(=O)(=O)NC(CCCCCC)COS(=O)(=O)CCCOCc1ccccc1` (stereo not given) the value was 28%; for `CCCCCCCCCCCC(=O)NC(CCCCCC)COP(=O)(CCCC)OC` (stereo not given), 24%; for `CCCCCCCCCCS(=O)(=O)N[C@H](CCCCCC)COP(=O)(O)OCCOCc1ccccc1` (stereo in doubt; form 2), 46%. Take `CCCCCCCCOCC(COP(=O)(O)OCCN)OP(=O)(O)CCCCCCC` (stereo not given): the inhibition stood at 33%. Compound `CCCCCCCCCCS(=O)(=O)NC(CCCCCC)COP(=O)(O)OCCO` (stereo in doubt; form 1) came in with an inhibition of 49%.

In the case of `CCCCCCCCCCCC(=O)NC(CCCCCC)COP(=O)(O)OCC(N)C(=O)O` (stereo not given), the inhibition stood at 31%.

The compound `CCCCCCCCCCCC(=O)NC(CCCCCC)COP(=O)(O)CCCC` (stereo not given) registered an inhibition of 45%. For `CCCCCCCCCCS(=O)(=O)NC(CCCCCC)COP(=O)(O)CCCC` (stereo not given) the value was 30%; for `CCCCCCCCCCS(=O)(=O)N[C@H](CCCCCC)COP(=O)(O)OCCOCc1ccccc1` (stereo in doubt; form 1), 45%; for `CCCCCCCCCCS(=O)(=O)N[C@H](CCCCCC)COP(=O)(O)OCCO`, 40%. Consider `CCCCCCCCCCCC(=O)NC(CCCCCC)COP(=O)(O)OCCO` (stereo not given), for which the inhibition amounted to 61%. For `CCCCCCCCCCS(=O)(=O)CC(CCCCCC)COP(=O)(O)OCCOCc1ccccc1` (stereo in doubt; form 2) the value was 79%; for `CCCCCCCCCCS(=O)(=O)NC(CCCCCC)COP(=O)(O)OCCCC` (stereo not given), 0%; for `CCCCCCCCCCS(=O)(=O)NC(CCCCCC)COP(=O)(O)OCCOCc1ccccc1` (stereo in doubt; form 2), 36%.

Broadly, the inhibition is the percentage by which the read-out fell short of the control.
